Our source for the IC50 values is patent US12577217B2, “15-PGDH inhibitor” (KYORIN Pharmaceutical Co., Ltd., priority 2019, dated 2026).

What is called IC50 is the concentration needed to halve the response being measured.

For this experiment, the target named is T1, recombinant human 15-PGDH (Homo sapiens, UniProt P15428).
T1 construct: purchased R&D Systems
T1 sequence (P15428 1-266): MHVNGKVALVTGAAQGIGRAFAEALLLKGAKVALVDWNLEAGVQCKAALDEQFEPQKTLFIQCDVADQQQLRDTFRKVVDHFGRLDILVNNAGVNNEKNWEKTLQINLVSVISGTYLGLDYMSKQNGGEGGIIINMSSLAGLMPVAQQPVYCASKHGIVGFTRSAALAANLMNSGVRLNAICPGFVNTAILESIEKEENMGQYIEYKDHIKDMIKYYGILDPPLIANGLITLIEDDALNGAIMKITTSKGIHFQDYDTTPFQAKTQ
In words: 15-PGDH enzyme inhibition test. The experiment is classed as biochemical. To be noted: 4 nM recombinant human 15-PGDH, 30 μM PGE2, 1 mM NAD+, 60 minutes after starting the reaction; read-out: IC50 Value. Put shortly: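 Fluorescence (excitation 340 nm, emission 440 nm) measured 60 min after adding 1 mM NAD+ and 30 μM PGE2 to 4 nM recombinant human 15-PGDH, which had stood 12 min at room temperature with compound in pH 8.0 Tris-HCl buffer. Concentration-response curves yield IC50, binned into potency categories.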

For `O=C(c1cnc2c(c1)OCCN2c1ccncc1)N1CCCCC1` [Example 1-233], the half-maximal inhibitory concentration (IC50) is 10 to 100 nM. The value for `O=C(c1cnc2c(c1)OCCN2c1cccnc1)N1CCCCC1` [Example 1-234] was 10 to 100 nM; that for `O=C(c1cnc2c(c1)OCCN2c1ccccn1)N1CCCCC1` [Example 1-235] was > 100 nM; that for `O=C(c1cnc2c(c1)OCCN2c1ccc(F)cc1)N1CCCCC1` [Example 1-236] was > 100 nM. Consider `O=C(c1cnc2c(c1)OCCN2c1cccc(F)c1)N1CCCCC1` [Example 1-237], for which the IC50 is < 10 nM. On to `O=C(c1cnc2c(c1)OCCN2c1ccccc1F)N1CCCCC1` [Example 1-238], for which the half-maximal inhibitory concentration (IC50) is > 100 nM.

As for `O=C(c1cnc2c(c1)OCCN2c1ccc(F)c(F)c1)N1CCCCC1` [Example 1-239], the half-inhibitory concentration (IC50) is 10 to 100 nM. As to `CS(=O)(=O)c1ccc(N2CCOc3cc(C(=O)N4CCCCC4)cnc32)cc1` [Example 1-240], the IC50 was in the range of 10 to 100 nM. With `N#Cc1ccc(N2CCOc3cc(C(=O)N4CCCCC4)cnc32)cc1` [Example 1-241], the IC50 is < 10 nM. Take `O=C(c1cnc2c(c1)OCCN2c1ccc(C(F)(F)F)cc1)N1CCCCC1` [Example 1-242]: the IC50 lay in the range of 10 to 100 nM. As to `O=C(c1cnc2c(c1)OCCN2c1ccc(Br)cc1)N1CCCCC1` [Example 1-243], the IC50 is 10 to 100 nM. On to `CCc1ccc(N2CCOc3cc(C(=O)N4CCCCC4)cnc32)cc1` [Example 1-244], for which the IC50 lay within 10 to 100 nM.

With `COc1ccc(N2CCOc3cc(C(=O)N4CCCCC4)cnc32)cc1` [Example 1-245], the IC50 fell in the range of 10 to 100 nM.

As for `CC(C)(N)c1ccc(N2CCOc3cc(C(=O)N4CCCCC4)cnc32)cc1` [Example 1-246], the IC50 was > 100 nM. With `COC(=O)C(C)(C)c1ccc(N2CCOc3cc(C(=O)N4CCCCC4)cnc32)cc1` [Example 1-247] the figure was > 100 nM.

For `CN1C(=O)C(C)(C)c2ccc(N3CCOc4cc(C(=O)N5CCCCC5)cnc43)cc21` [Example 1-248], the half-maximal inhibitory concentration (IC50) was > 100 nM. With `CN1C(=O)C(C)(C)c2cc(N3CCOc4cc(C(=O)N5CCCCC5)cnc43)ccc21` [Example 1-249] the figure was > 100 nM. Consider `Cn1nnnc1-c1ccc(N2CCOc3cc(C(=O)N4CCCCC4)cnc32)cc1` [Example 1-251], for which the IC50 was < 10 nM. With `Cn1nnc(-c2ccc(N3CCOc4cc(C(=O)N5CCCCC5)cnc43)cc2)n1` [Example 1-252], the IC50 is < 10 nM.

In the case of `O=C(c1cnc2c(c1)OCCN2c1cccc(Cl)c1)N1CCCCC1` [Example 1-253], the 50% inhibitory concentration (IC50) fell in the range of 10 to 100 nM.

Regarding `CS(=O)(=O)c1ccc(N2CCOc3cc(C(=O)N4CCCCC4)cnc32)cc1Cl` [Example 1-254], the IC50 was in the range of 10 to 100 nM. As for `COc1cc(N2CCOc3cc(C(=O)N4CCCCC4)cnc32)ccc1S(C)(=O)=O` [Example 1-255], the IC50 is 10 to 100 nM. Consider `O=C(c1cnc2c(c1)OCCN2c1ccc2cccnc2c1)N1CCCCC1` [Example 1-257], for which the IC50 was < 10 nM. In the case of `O=C(c1cnc2c(c1)OCCN2c1ccc2nccnc2c1)N1CCCCC1` [Example 1-258], the concentration for half-maximal inhibition (IC50) is < 10 nM.

`O=C(c1cnc2c(c1)OCCN2c1ccc2cnccc2c1)N1CCCCC1` [Example 1-259]: the IC50 is < 10 nM. As for `O=C(c1cnc2c(c1)OCCN2c1ccc2ccncc2c1)N1CCCCC1` [Example 1-260], the IC50 is < 10 nM. The value for `COC(=O)c1ccc(N2CCOc3cc(C(=O)N4CCCCC4)cnc32)cc1` [Example 1-261] was < 10 nM; that for `COC(=O)c1cccc(N2CCOc3cc(C(=O)N4CCCCC4)cnc32)c1` [Example 1-262] was < 10 nM; that for `COC(=O)c1ccccc1N1CCOc2cc(C(=O)N3CCCCC3)cnc21` [Example 1-263] was > 100 nM. The value for `CCOC(=O)c1ccc(N2CCOc3cc(C(=O)N4CCCCC4)cnc32)s1` [Example 1-264] was < 10 nM; that for `Cn1nc2cc(N3CCOc4c3ccc(C(=O)N3CCCCC3)c4Cl)ccn2c1=O` [Example 1-265] was < 10 nM. Take `COCCN1Cc2cc(N3CCOc4cc(C(=O)N5CCC(F)(F)CC5)cnc43)ncc2C1=O` [Example 1-266]: the IC50 was 10 to 100 nM. The value for `Cn1ccc2cc(N3CCOc4cc(C(=O)N5CCC(F)(F)CC5)cnc43)ccc2c1=O` [Example 1-267] was < 10 nM. With `CCOCn1nc2cc(N3CCOc4cc(C(=O)N5CCCCC5)cnc43)ccn2c1=O` [Example 1-268], the IC50 is < 10 nM. Turning to `CCOCCn1nc2cc(N3CCOc4cc(C(=O)N5CCCCC5)cnc43)ccn2c1=O` [Example 1-269], the IC50 was < 10 nM. Regarding `Cn1nc2cc(N3CCOc4cc(C(=O)N5CCCCC5)cnc43)c(Cl)cn2c1=O` [Example 1-270], the concentration for half-maximal inhibition (IC50) was > 100 nM.

Regarding `COc1cc2c(cc1C(=O)N1CCCCC1)OCCN2c1ccc(C(=O)O)cc1` [Example 2-1, 4-(6-Methoxy-7-(piperidine-1-carbonyl)-2,3-dihydro-4H-benzo[b] [1,4]oxazin-4-yl)benzoic Acid], the IC50 fell in the range of 10 to 100 nM. In the case of `COc1c(C(=O)N2CCCCC2)ccc2c1OCCN2c1ccc(C(=O)O)cc1` [Example 2-2], the IC50 is < 10 nM. The value for `O=C(O)c1ccc(N2CCOc3cc(C(=O)N4CCCCC4)c(Cl)cc32)cc1` [Example 2-3] was < 10 nM; that for `O=C(O)c1ccc(N2CCOc3c2ccc(C(=O)N2CCCCC2)c3Cl)cc1` [Example 2-4] was < 10 nM; that for `O=C(O)c1ccc(N2CCCOc3cc(C(=O)N4CCCCC4)ccc32)cc1` [Example 2-5] was < 10 nM.

Consider `O=C(O)c1ccc(N2CCCCOc3cc(C(=O)N4CCCCC4)ccc32)cc1` [Example 2-6], for which the IC50 was < 10 nM. With `O=C(O)c1ccc(N2CCOc3cc(C(=O)N4CCCCC4)ccc32)cc1` [Example 2-7], the IC50 was < 10 nM. The value for `O=C(O)c1ccc(N2CCCOc3cc(C(=O)N4CCCCC4)cnc32)cc1` [Example 2-8] was < 10 nM; that for `O=C(O)c1ccc(N2CCCCOc3cc(C(=O)N4CCCCC4)cnc32)cc1` [Example 2-9] was < 10 nM. As for `C[C@H]1COc2cc(C(=O)N3CCCCC3)ccc2N(c2ccc(C(=O)O)cc2)C1` [Example 2-10], the IC50 was < 10 nM. The value for `C[C@@H]1COc2cc(C(=O)N3CCCCC3)ccc2N(c2ccc(C(=O)O)cc2)C1` [Example 2-11] was < 10 nM. For `COc1cc(N2CCOc3cc(C(=O)N4CCCCC4)ccc32)ccc1C(=O)O` [Example 2-12], the IC50 is < 10 nM. The value for `COc1cc(N2CCOc3cc(C(=O)N4CCC(F)(F)CC4)ccc32)ccc1C(=O)O` [Example 2-13] was < 10 nM.

For `COc1cc(N2CCOc3cc(C(=O)N4CC=CCC4)ccc32)ccc1C(=O)O` [Example 2-14], the IC50 is < 10 nM. Turning to `O=C(O)c1ccc(N2CCSc3cc(C(=O)N4CCCCC4)ccc32)cc1` [Example 2-15], the IC50 is < 10 nM. For `O=C(O)c1ccc(N2CC[S+]([O-])c3cc(C(=O)N4CCCCC4)ccc32)cc1` (centres unmarked) [Example 2-16], the IC50 fell in the range of 10 to 100 nM. On to `O=C(O)c1ccc(N2CCS(=O)(=O)c3cc(C(=O)N4CCCCC4)ccc32)cc1` [Example 2-17], for which the IC50 was 10 to 100 nM.

For the molecule `O=C(O)c1ccc(N2CCCSc3cc(C(=O)N4CCCCC4)ccc32)cc1` [Example 2-18], the IC50 is < 10 nM. With `O=C(O)c1ccc(N2CCC[S+]([O-])c3cc(C(=O)N4CCCCC4)ccc32)cc1` (centres unmarked) [Example 2-19] the figure was > 100 nM.

Regarding `O=C(O)c1ccc(N2CCCS(=O)(=O)c3cc(C(=O)N4CCCCC4)ccc32)cc1` [Example 2-20], the concentration for half-maximal inhibition (IC50) was > 100 nM. With `O=C(O)c1ccc(N2CCOc3cc(C(=O)N4CCCCC4)ccc32)nc1` [Example 2-21] the figure was < 10 nM; with `O=C(O)c1ccc(N2CCOc3cc(C(=O)N4CCCCC4)ccc32)cn1` [Example 2-22], < 10 nM; with `O=C(O)Cn1nc2cc(N3CCOc4cc(C(=O)N5CCCCC5)cnc43)ccn2c1=O` [Example 2-23], < 10 nM. Turning to `O=C(O)c1ccc(N2CCCc3cc(C(=O)N4CCCCC4)ccc32)cc1` [Example 2-26], the IC50 was < 10 nM. On to `O=C(O)c1ccccc1N1CCOc2cc(C(=O)N3CCCCC3)ccc21` [Example 2-27], for which the IC50 was > 100 nM. With `O=C(O)c1ccccc1N1CCc2cc(C(=O)N3CCCCC3)ccc21` [Example 2-28] the figure was > 100 nM; with `O=C(O)c1cccc(N2CCc3cc(C(=O)N4CCCCC4)ccc32)c1` [Example 2-29], < 10 nM. For `O=C(O)c1ccc(N2CCc3cc(C(=O)N4CCCCC4)ccc32)cc1` [Example 2-30], the IC50 is < 10 nM. For the molecule `O=C(O)c1cccc(N2CCOc3cc(C(=O)N4CCCCC4)ccc32)c1` [Example 2-31], the IC50 is < 10 nM. As for `O=C(O)Cc1ccc(N2CCOc3cc(C(=O)N4CCCCC4)ccc32)cc1` [Example 2-32], the IC50 is < 10 nM. The value for `O=C(O)CCc1ccc(N2CCOc3cc(C(=O)N4CCCCC4)ccc32)cc1` [Example 2-33] was < 10 nM; that for `O=C(O)c1ccc(N2CCCc3cc(C(=O)N4CCCCC4)cnc32)cc1` [Example 2-34] was < 10 nM; that for `O=C(O)c1ccc(N2CCOc3cc(C(=O)N4CCC(F)(F)CC4)ccc32)cc1` [Example 2-35] was < 10 nM.

For `O=C(O)c1ccccc1N1CCOc2cc(C(=O)N3CCCCC3)cnc21` [Example 2-36], the half-maximal inhibitory concentration (IC50) is > 100 nM. With `CC(C)(C(=O)O)c1ccc(N2CCOc3cc(C(=O)N4CCCCC4)cnc32)cc1` [Example 2-37] the figure was > 100 nM.
